Source: the supplement of paper PMC10307832

Tests used:
Assay in all cases: relative viability (nuclei count vs DMSO), 5 days (fraction); higher = more cells survive
Alpelisib + Linsitinib = compound: Cc1nc(NC(=O)N2CCC[C@H]2C(N)=O)sc1-c1ccnc(C(C)(C)C(F)(F)F)c1 [Alpelisib] + C[C@]1(O)C[C@@H](c2nc(-c3ccc4ccc(-c5ccccc5)nc4c3)c3c(N)nccn32)C1 [Linsitinib] (partner 1 µM)
Outline: (§1)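 Lung cancer cell lines in 1536-well plates were dosed by pin tool the day after seeding, either with one drug alone or with a fixed anchor-drug dose plus five library-drug doses (not always all listed) in √10 steps. After 5 days, cells were fixed and their nuclei stained in one step (final 0.05% Triton X-100, 1% formaldehyde, 1 ug/ml Hoechst), then counted on 4× images. Relative viability is the nuclei count in treated wells divided by that in vehicle wells. Values are medians of duplicate plates.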

OSI-027 + Lapatinib = compound: COc1cccc2cc(-c3nc([C@H]4CC[C@H](C(=O)O)CC4)n4ncnc(N)c34)[nH]c12 [OSI-027] + CS(=O)(=O)CCNCc1ccc(-c2ccc3ncnc(Nc4ccc(OCc5cccc(F)c5)c(Cl)c4)c3c2)o1 [Lapatinib] (partner 2 µM)
Outline: as §1

Alpelisib + Bortezomib = compound: Cc1nc(NC(=O)N2CCC[C@H]2C(N)=O)sc1-c1ccnc(C(C)(C)C(F)(F)F)c1 [Alpelisib] + CC(C)C[C@H](NC(=O)[C@H](Cc1ccccc1)NC(=O)c1cnccn1)B(O)O [Bortezomib] (partner 0.002 µM)
Outline: as §1

Vemurafenib + Navitoclax = compound: CCCS(=O)(=O)Nc1ccc(F)c(C(=O)c2c[nH]c3ncc(-c4ccc(Cl)cc4)cc23)c1F [Vemurafenib] + CC1(C)CCC(c2ccc(Cl)cc2)=C(CN2CCN(c3ccc(C(=O)NS(=O)(=O)c4ccc(N[C@H](CCN5CCOCC5)CSc5ccccc5)c(S(=O)(=O)C(F)(F)F)c4)cc3)CC2)C1 [Navitoclax] (partner 0.5 µM)
Outline: as §1

| Cell Line | relative viability (Alpelisib + Linsitinib; first compound 0.04 µM) | relative viability (Alpelisib + Linsitinib; first compound 0.1265 µM) | relative viability (Alpelisib + Linsitinib; first compound 0.4 µM) | relative viability (Alpelisib + Linsitinib; first compound 1.265 µM) | relative viability (Alpelisib + Linsitinib; first compound 4 µM) | relative viability (OSI-027 + Lapatinib; first compound 0.01 µM) | relative viability (OSI-027 + Lapatinib; first compound 0.03162 µM) | relative viability (OSI-027 + Lapatinib; first compound 0.1 µM) | relative viability (OSI-027 + Lapatinib; first compound 0.3162 µM) | relative viability (OSI-027 + Lapatinib; first compound 1 µM) | relative viability (Alpelisib + Bortezomib; first compound 0.04 µM) | relative viability (Alpelisib + Bortezomib; first compound 0.1265 µM) | relative viability (Alpelisib + Bortezomib; first compound 0.4 µM) | relative viability (Alpelisib + Bortezomib; first compound 1.265 µM) | relative viability (Alpelisib + Bortezomib; first compound 4 µM) | relative viability (Vemurafenib + Navitoclax; first compound 0.03162 µM) | relative viability (Vemurafenib + Navitoclax; first compound 0.3162 µM) | relative viability (Vemurafenib + Navitoclax; first compound 1 µM) | relative viability (Vemurafenib + Navitoclax; first compound 0.1 µM) |
| --- | --- | --- | --- | --- | --- | --- | --- | --- | --- | --- | --- | --- | --- | --- | --- | --- | --- | --- | --- |
| PC-3 [JPC-3] | 0.948 | 0.974 | 1.03 | 0.883 | 0.933 | 0.452 | 0.454 | 0.412 | 0.327 | 0.298 | 0.873 | 0.901 | 0.766 | 0.768 | 0.66 | 0.728 | 0.936 | 0.788 |  |
| NCI-H1651 | 0.953 | 0.932 | 0.963 | 0.932 | 0.956 | 0.842 |  | 0.728 | 0.725 | 0.371 | 0.913 | 0.921 | 0.913 | 0.886 | 0.745 | 1.02 | 1.07 | 0.93 | 0.976 |
| NCI-H596 | 1.05 | 1.03 | 0.867 | 0.555 | 0.477 | 1.05 | 1.19 | 0.934 | 0.742 | 0.832 | 1.17 | 0.801 | 1.15 | 0.666 | 0.44 | 0.93 | 1.04 | 0.842 | 0.728 |
| HARA | 0.885 | 0.947 | 1.08 | 0.719 | 0.358 | 0.741 | 0.577 | 0.549 | 0.418 | 0.405 | 0.976 | 1.09 | 1.34 | 1.01 | 0.766 | 1.09 | 1.13 | 1.14 |  |
| NCI-H727 | 0.292 | 0.306 | 0.388 | 0.27 | 0.177 | 0.906 | 0.875 | 0.692 | 0.666 | 0.577 | 0.806 | 0.693 | 0.988 | 0.759 | 0.465 | 0.518 | 0.613 | 0.438 | 0.366 |
| Calu-6 | 0.906 | 0.978 | 1.03 | 0.806 | 0.912 | 1.06 | 1.06 | 0.953 | 0.829 | 0.621 | 0.952 | 0.827 | 1.1 | 0.852 | 1.03 | 0.866 | 0.609 | 0.707 | 0.814 |
| NCI-H1993 | 0.732 | 0.737 | 0.762 | 0.702 | 0.749 | 0.786 | 0.808 | 0.773 | 0.785 | 0.693 | 1.09 | 1.03 | 1.02 | 0.791 | 0.489 | 0.857 | 1.25 | 1.08 |  |
| HCC-366 | 0.716 | 0.519 | 0.375 | 0.327 | 0.152 | 1.25 | 1.1 | 1.16 | 0.764 | 0.148 | 0.974 | 1.05 | 1.02 | 0.82 | 0.419 | 0.997 |  | 1.03 | 0.983 |
| IA-LM | 0.565 | 0.424 | 0.829 | 0.616 | 0.493 | 0.765 | 0.697 | 0.499 | 0.193 | 0.223 | 0.985 | 0.794 | 0.794 | 0.698 | 0.728 | 0.643 | 0.794 | 0.665 | 0.806 |
| EPLC-272H | 1.1 | 0.977 | 1.34 | 0.937 | 0.893 | 1.12 | 0.965 | 0.699 | 0.664 | 0.55 | 0.902 | 0.911 | 1.13 | 0.904 | 0.622 | 1.05 | 1.13 | 1.06 | 0.916 |
| NCI-H441 | 0.734 | 0.403 | 0.698 | 0.524 | 0.492 |  |  |  |  |  | 0.631 | 0.45 | 0.531 | 0.329 | 0.385 | 0.798 |  | 0.735 | 0.614 |
| NCI-H1793 | 0.596 | 1.19 | 0.997 | 0.692 | 0.525 | 0.619 | 0.65 | 0.559 | 0.264 | 0.26 |  |  |  |  |  | 0.389 | 0.361 | 0.454 |  |
| 201T | 0.93 | 0.936 | 0.989 | 0.806 | 0.917 | 1.05 | 1.08 | 0.986 | 0.975 | 0.957 | 1.1 | 1.08 | 1.18 | 1.08 | 1.09 | 1.16 | 1.2 | 1.14 | 1.26 |
| NCI-H460 | 0.716 | 0.722 | 0.516 | 0.261 | 0.284 | 1.11 | 0.716 | 0.814 | 0.536 | 0.102 | 1 | 0.939 | 1.13 | 0.646 | 0.366 | 1.17 | 1.02 | 1.07 | 1.14 |
| NCI-H1666 | 0.805 | 0.705 | 0.772 | 1.01 | 0.793 | 0.521 | 0.709 | 0.554 | 0.33 | 0.27 | 0.837 | 0.695 | 0.882 | 0.591 | 0.423 | 0.932 | 1.06 | 0.972 |  |
| HOP-62 | 0.801 | 0.959 | 1.16 | 0.976 | 0.922 | 1.1 | 1.09 | 0.848 | 0.849 | 0.855 | 0.749 | 0.397 | 0.986 | 0.811 | 0.807 | 0.939 | 0.966 | 1.05 | 1.12 |
| SW 1573 | 0.919 | 0.826 | 0.725 | 0.685 | 0.547 | 0.941 | 1.14 | 1.05 | 0.989 | 0.636 | 0.898 | 0.947 | 1 | 0.72 | 0.651 | 0.927 | 1.09 | 0.934 | 1.12 |
